Assay results taken from patent US11717508B2, “Compounds, compositions, and methods for inhibiting bacterial growth” (priority 2016, dated 2023).

System: DosRST regulon
Type: cell-based
[1] = Rv0569, WT Mtb treated with HC102A compared to DMSO
[2] = Rv0570 nrdZ, WT Mtb treated with HC102A compared to DMSO
[3] = Rv0571c, WT Mtb treated with HC102A compared to DMSO
[4] = Rv0572c, WT Mtb treated with HC102A compared to DMSO
[5] = Rv0573c, WT Mtb treated with HC102A compared to DMSO
[6] = Rv0574c, WT Mtb treated with HC102A compared to DMSO
[7] = Rv1733c, WT Mtb treated with HC102A compared to DMSO
[8] = Rv1735c, WT Mtb treated with HC102A compared to DMSO
[9] = Rv1736c narX, WT Mtb treated with HC102A compared to DMSO
[10] = Rv1737c narK2, WT Mtb treated with HC102A compared to DMSO
[11] = Rv1738, WT Mtb treated with HC102A compared to DMSO
[12] = Rv1790 PPE, WT Mtb treated with HC102A compared to DMSO
[13] = Rv1812c, WT Mtb treated with HC102A compared to DMSO
[14] = Rv1813c, WT Mtb treated with HC102A compared to DMSO

For `C[C@@H]1CC(C)(C)C[C@]2(C1)NC(=O)NC2=O` (racemic) [HC102A, 7,7,9-trimethyl-1,3-diazaspiro[4.5]decane-2,4-dione], the “genes downregulated by compound (total)” value (40 μM, 6 days, >2-fold, p<0.05) was 55 genes, the “downregulation of tgs1 gene (transcriptional profiling)” value (CDC1551, 40 μM, 6 days) was about 20 fold and the “Fold change, gene MT0595” value [1] was 0.1089. The “log2 Fold change, gene MT0595” value [1] was −3.199, the “Counts per million (CPM) WT_HC102A1, gene MT0595” value (Rv0569, WT Mtb treated with HC102A, replicate 1) was 21.38 CPM and the “Counts per million (CPM) WT_HC102A2, gene MT0595” value (Rv0569, WT Mtb treated with HC102A, replicate 2) was 25.92 CPM. The “Fold change, gene MT0596” value [2] was 0.04533, the “log2 Fold change, gene MT0596” value [2] was −4.464 and the “Counts per million (CPM) WT_HC102A1, gene MT0596” value (Rv0570 nrdZ, WT Mtb treated with HC102A, replicate 1) was 102.7 CPM. The “Counts per million (CPM) WT_HC102A2, gene MT0596” value (Rv0570 nrdZ, WT Mtb treated with HC102A, replicate 2) was 94.1 CPM, the “Fold change, gene MT0597” value [3] was 0.2805 and the “log2 Fold change, gene MT0597” value [3] was −1.834. The “Counts per million (CPM) WT_HC102A1, gene MT0597” value (Rv0571c, WT Mtb treated with HC102A, replicate 1) was 94.1998 CPM, the “Counts per million (CPM) WT_HC102A2, gene MT0597” value (Rv0571c, WT Mtb treated with HC102A, replicate 2) was 81.32 CPM and the “Fold change, gene MT0599” value [4] was 0.2441. For the same compound, the “log2 Fold change, gene MT0599” value [4] was −2.034, the “Counts per million (CPM) WT_HC102A1, gene MT0599” value (Rv0572c, WT Mtb treated with HC102A, replicate 1) was 127.4 CPM and the “Counts per million (CPM) WT_HC102A2, gene MT0599” value (Rv0572c, WT Mtb treated with HC102A, replicate 2) was 180.6 CPM. The “Fold change, gene MT0601” value [5] was 0.1932, the “log2 Fold change, gene MT0601” value [5] was −2.372 and the “Counts per million (CPM) WT_HC102A1, gene MT0601” value (Rv0573c, WT Mtb treated with HC102A, replicate 1) was 13.82 CPM. The “Counts per million (CPM) WT_HC102A2, gene MT0601” value (Rv0573c, WT Mtb treated with HC102A, replicate 2) was 19.29 CPM, the “Fold change, gene MT0602” value [6] was 0.1416 and the “log2 Fold change, gene MT0602” value [6] was −2.82. For the same compound, the “Counts per million (CPM) WT_HC102A1, gene MT0602” value (Rv0574c, WT Mtb treated with HC102A, replicate 1) was 45.11 CPM, the “Counts per million (CPM) WT_HC102A2, gene MT0602” value (Rv0574c, WT Mtb treated with HC102A, replicate 2) was 51.54 CPM and the “Fold change, gene MT1774” value [7] was 0.07551. The “log2 Fold change, gene MT1774” value [7] was −3.727, the “Counts per million (CPM) WT_HC102A1, gene MT1774” value (Rv1733c, WT Mtb treated with HC102A, replicate 1) was 109.6 CPM and the “Counts per million (CPM) WT_HC102A2, gene MT1774” value (Rv1733c, WT Mtb treated with HC102A, replicate 2) was 116 CPM. The “Fold change, gene MT1776” value [8] was 0.2742, the “log2 Fold change, gene MT1776” value [8] was −1.867 and the “Counts per million (CPM) WT_HC102A1, gene MT1776” value (Rv1735c, WT Mtb treated with HC102A, replicate 1) was 5.202 CPM. For the same compound, the “Counts per million (CPM) WT_HC102A2, gene MT1776” value (Rv1735c, WT Mtb treated with HC102A, replicate 2) was 4.163 CPM, the “Fold change, gene MT1778” value [9] was 0.05545 and the “log2 Fold change, gene MT1778” value [9] was −4.173. The “Counts per million (CPM) WT_HC102A1, gene MT1778” value (Rv1736c narX, WT Mtb treated with HC102A, replicate 1) was 234.5 CPM, the “Counts per million (CPM) WT_HC102A2, gene MT1778” value (Rv1736c narX, WT Mtb treated with HC102A, replicate 2) was 246.1 CPM and the “Fold change, gene MT1779” value [10] was 0.04997. The “log2 Fold change, gene MT1779” value [10] was −4.323, the “Counts per million (CPM) WT_HC102A1, gene MT1779” value (Rv1737c narK2, WT Mtb treated with HC102A, replicate 1) was 72.42 CPM and the “Counts per million (CPM) WT_HC102A2, gene MT1779” value (Rv1737c narK2, WT Mtb treated with HC102A, replicate 2) was 91.94 CPM. For the same compound, the “Fold change, gene MT1780” value [11] was 0.1174, the “log2 Fold change, gene MT1780” value [11] was −3.091 and the “Counts per million (CPM) WT_HC102A1, gene MT1780” value (Rv1738, WT Mtb treated with HC102A, replicate 1) was 337.8 CPM. For the same compound, the “Counts per million (CPM) WT_HC102A2, gene MT1780” value (Rv1738, WT Mtb treated with HC102A, replicate 2) was 628.9 CPM, the “Fold change, gene MT1839” value [12] was 0.466 and the “log2 Fold change, gene MT1839” value [12] was −1.102. The “Counts per million (CPM) WT_HC102A1, gene MT1839” value (Rv1790 PPE, WT Mtb treated with HC102A, replicate 1) was 29.83 CPM, the “Counts per million (CPM) WT_HC102A2, gene MT1839” value (Rv1790 PPE, WT Mtb treated with HC102A, replicate 2) was 18.94 CPM and the “Fold change, gene MT1860” value [13] was 0.3171. For the same compound, the “log2 Fold change, gene MT1860” value [13] was −1.657, the “Counts per million (CPM) WT_HC102A1, gene MT1860” value (Rv1812c, WT Mtb treated with HC102A, replicate 1) was 54.94 CPM and the “Counts per million (CPM) WT_HC102A2, gene MT1860” value (Rv1812c, WT Mtb treated with HC102A, replicate 2) was 65.84 CPM. For the same compound, the “Fold change, gene MT1861” value [14] was 0.06232, the “log2 Fold change, gene MT1861” value [14] was −4.004 and the “Counts per million (CPM) WT_HC102A1, gene MT1861” value (Rv1813c, WT Mtb treated with HC102A, replicate 1) was 121.3 CPM.
